# Experiments:
# [1] = monomeric form; cited from earlier work
# [2] = tested on: Rat; settings: cited from earlier work
# [3] = tested on: Rabbit; settings: cited from earlier work
# [4] = heavy gauge vinyl pool liner and film of vinyl baby pants; cited from earlier work
# [5] = tested on: Staphylococcus aureus; assay: Zone of Inhibition testing AATCC-147 (modified), pellets in agar; format: cell-based; settings: text summary of Table VIII
# Protocol: A set of AETs run measured Zone of Inhibition, ZOI (AATCC-147) and pellets from runs 1 to 5 were used. Pellets were placed in an agar growth medium that had been streaked with parallel lines of Staphylococcus aureus and incubated for 24 hours at 37° C. The final plates were photographed and measured for length of ZOI in mm.
smiles,measurement,setting,value
"CCCCCCCCCCCCCCCCCC[N+](C)(C)CCC[Si](OC)(OC)OC.[Cl-] [Ref #1, 3-(trimethoxysilyl) propyl-N-octadecyl-N,N-dimethyl ammonium chloride]",Vapor pressure,[1],5.8 × 10^−14 mmHg
"c1ccc2c(c1)Oc1ccccc1[As]2O[As]1c2ccccc2Oc2ccccc21 [OBPA, 10,10′-oxybisphenoxarsine]",Oral LD50,[2],37 mg/kg
same,Dermal LD50,[3],121 mg/kg
same,Leaching from plastics,[4],leaches very slowly
"Oc1cc(Cl)ccc1Oc1ccc(Cl)cc1Cl [TRICLOSAN, 2,4,4′-trichloro-2′-hydroxy diphenol ether]",ZOI (in words),[5],significant ZOI

# Reference: patent US20110233810A1, “ANTIMICROBIAL PLASTIC COMPOSITIONS AND METHODS FOR PREPARING SAME” (W. M. Barr & Company, priority 2010, published 2011)
